Test results: PubChem BioAssay (NCI)
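Grown in 96-well plates, cells were treated for 48 hours with each compound at five concentrations. Insufficient inhibition: endpoint recorded as highest concentration tested. GI50 = concentration required for 50% inhibition of growth. TGI marks complete inhibition of growth.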

Tested on: MDA-MB-468 breast
Assay: inhibition of tumour cell growth, NCI panel, 48 h

SMILES	GI50	TGI
Cc1cc(Cl)nc(N(CCCNc2ccnc3cc(Cl)ccc23)Cc2cccs2)n1	1040 nM	4250 nM
Cn1cc(C2=C(c3cc[nH]c3)C(=O)NC2=O)c2ccccc21	11900 nM	> 25000 nM
Cc1ccc2c(n1)C(=O)C(Cl)=C(Nc1cc(C(F)(F)F)cc(C(F)(F)F)c1)C2=O	2010 nM	4570 nM
c1cc(C2CCCCC2)ccc1-c1cnc2nonc2n1	316 nM	1360 nM
CCn1cc(C(=O)N/N=C/c2cccs2)c(=O)c2cc(F)c(N3CCNC(C)C3)c(F)c21 (stereo not given)	1660 nM	3270 nM
C(=C\c1ccncc1)/c1ccncc1	> 100000 nM	> 100000 nM
COc1cc2c3c(n([C@@H]4CCOC4)c(=O)c2cc1OC)-c1cc2c(cc1C3=O)OCO2	< 10 nM	94.9 nM
CCN(CC)S(=O)(=O)c1cccc(-c2ccc3c(NC(=O)C4CC4)n[nH]c3c2)c1	1220 nM	> 6250 nM
COc1c(B(O)O)cccc1-c1nc2ccc3[nH]ncc3c2c2c1CCCC2	1690 nM	4940 nM
Oc1ccc(Cl)cc1Sc1cc(Cl)ccc1O	3130 nM	9120 nM
CN(C)c1cc2c(Nc3ccc4c(cnn4Cc4ccccc4)c3)ncnc2cn1	136 nM	1160 nM
CSc1nnc(-c2cc3c([nH]c4ccccc43)c(-c3cccc(O)c3)n2)n1-c1ccc(C)cc1	3700 nM	33700 nM
CN(C)CC1C(=O)O[C@H]2[C@H]1CC/C(COC(=O)NCc1ccc(Cn3c(=O)sn(CCCI)c3=O)cc1)=C\CC[C@@]1(C)O[C@@H]21 (stereo not given in full)	700 nM	1600 nM
CC(C)c1[nH]nc2c(NCc3ccc(-c4ccccn4)cc3)nc(SCCN)nc12	3.35 nM	12.7 nM
C=C1C(=O)O[C@H]2[C@H]1CC/C(COC(=O)CCCCCCCC(=O)OC/C1=C/CC[C@@]3(C)O[C@H]3[C@H]3OC(=O)C(=C)[C@@H]3CC1)=C\CC[C@@]1(C)O[C@@H]21	2370 nM	6460 nM
Cc1ccc(N=Nc2c(O)ccc3n[nH]nc23)cc1	4140 nM	49000 nM
O=C(NCc1ccco1)C1CCN(S(=O)(=O)c2ccc(Cl)cc2)CC1	46000 nM	> 100000 nM
CC(=O)O[C@@H]1C2=C(C)C3(CC3)[C@@](C)(O)C(=O)C2=C[C@@]1(C)CO	209 nM	591 nM

SMILES	GI50	TGI
[Cl][Hg][c]1ccc2ccccc2c1	1460 nM	2840 nM
Cc1nc2sc(C(=O)Nc3ccccc3)c(N)c2cc1C(O)c1ccccc1 (stereo not given)	233 nM	> 65300 nM
COc1cc2c(NC3CCN(C(C)C)CC3)nc(C3CCCCC3)nc2cc1OCCCN1CCCC1	1420 nM	3170 nM
C[C@H]1COCCN1c1nc(-c2cnc(N)cc2C(F)F)nc(N2CCOCC2)n1	108 nM	732 nM
COc1ccc(/C=C2\COc3ccc(O)c(O)c3C2=O)cc1OC	1580 nM	4880 nM
OC(CN1CCCC2CCCCC21)c1cc2ccccc2c2ccccc12 (stereo not given)	1730 nM	3620 nM
COc1ccc2c(CCCc3ccc(Cl)cc3Cl)c3[n+](cc2c1OC)CCc1cc2c(cc1-3)OCO2	195 nM	894 nM
CC(C)c1[nH]nc2c(NCc3ccc(-c4ccccn4)cc3)nc(SCCN(C)C)nc12	< 12.9 nM	< 23.8 nM
O=C(N=Nc1c(Cl)c(O)c2ccccc2c1O)C(=O)Nc1cccc(C(F)(F)F)c1	4160 nM	15300 nM
COc1cccc(N2CCN(c3ncnc4cc[nH]c34)CC2)c1	215 nM	10200 nM
COCCNCc1ccc(-c2cc3nccc(Oc4ccc(NC(=O)C5(C(=O)Nc6ccc(F)cc6)CC5)cc4F)c3s2)nc1	1740 nM	3410 nM
Cc1nc2c(O)c3c(c(O)c2nc1C)C1C=CC3CC1	559 nM	1970 nM
Cc1c(Cl)cccc1NC(=O)c1sc2nc3c(cc2c1N)C(=O)CCC3	45.3 nM	71700 nM
CC1=CC(C)(C)Nc2ccc(Cc3ccc4c(c3)C(C)=CC(C)(C)N4)cc21	3810 nM	16200 nM
COC(=O)c1c2c(c(C)[n+]([O-])c1C)C(=O)C(NCc1ccc(F)cc1)=CC2=O	598 nM	2150 nM
O=C(NNc1nc2cc(F)cc(F)c2n2cccc12)c1cnccn1	331 nM	2890 nM
O=C(N/N=C/c1cc(Cl)ccc1O)c1ccccc1Nc1ccnc(C(F)(F)F)c1	265 nM	2050 nM
